# Results from ChEMBL document CHEMBL1201862, “PubChem BioAssay data set” (2004).
# Activity calls are given as the source filed them.
# Assays:
# cells = type: functional, cell-based
# [1] = Luminescence Cell-Based Dose Response HTS to Identify Inhibitors of 5'UTR Stem-Loop Driven Prion Protein mRNA Translation in H4 Neuroglioblastoma Cells. [Related pubchem assays: 1827 (Project Summary), 1813 (Primary HTS)]; type: functional
# [2] = target: Nuclear receptor subfamily 0 group B member 1 (Homo sapiens, UniProt P51843); type: functional, cell-based;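 note: HEK293T cells transfected with SF-1 and DAX-1 plus StAR promoter luciferase reporter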
# [3] = inhibitors of SNCA 5'UTR-driven reporter translation, confirmation, H4 neuroglioma cells, luminescence (AID 1988); type: functional, cell-based
# [4] = target: Heat shock protein HSP 90-alpha (Homo sapiens, UniProt P07900); experiment: Luminescence-based dose response biochemical high throughput screening assay for inhibitors of the Heat Shock Protein 90 (HSP90). [Related pubchem assays: 1831 (Summary AID.), 1846 (Confirmation screen.), 1789 (Primary screen.)]
# [5] = inhibitors of non-replicating M. tuberculosis, dose response, luciferase, dry powder (AID 651620); type: functional; details: Mycobacterium tuberculosis
# [6] = inhibitors of non-replicating M. tuberculosis, dose response, luciferase, dry powder (AID 651619); type: functional; details: Mycobacterium tuberculosis
# [7] = inhibitors of PGC1a acetylation in cells, dose response, cell-based, cherry-picked samples (AID 720514); type: functional;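 note: potency may reflect raised or lowered acetylation signal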
# HEK293 [8] = experiment: cells; details: Homo sapiens
# INS1 = experiment: beta cell apoptosis inhibitors, cytokine rescue, dose response, luminescence, retest (AID 449756); type: functional, cell-based; details: Rattus norvegicus;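 note: cell death triggered by IL-1 beta plus TNF-alpha plus IFN-gamma mixture; protective hits raise ATP signal compared with cytokine alone wells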
# [9] = microbe, parasite or virus in culture; type: functional; details: Mycobacterium tuberculosis
# [10] = HepG2 cell cytotoxicity, dose response, cytotoxicity control, plate reader, cherry-pick, antagonist series (AID 743416); type: functional, cell-based
# [11] = MC4R antagonists, dose response, counter-screen for LGR2 antagonist project, cell-based, plate reader, cherry pick (AID 743444); type: functional;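 note: transfected HEK 293 cells stimulated with alpha-MSH peptide; potency of inhibitors of the alpha-MSH evoked signal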
# [12] = HEK293 cell cytotoxicity, dose response, cytotoxicity control, plate reader, cherry-picked samples (AID 743446); type: functional, cell-based
# HEK293 [13] = experiment: cells; details: Homo sapiens; remark: listed apart in the source
# [14] = THP-1 cell cytotoxicity, dose response, cytotoxicity control for Vif-APOBEC3G degradation inhibitor project, THP-1 cells (AID 1117359); type: functional; details: Human immunodeficiency virus 1, THP-1
# [15] = LGR2 antagonists, dose response, cell-based, HEK293, CRE-luciferase reporter, cherry pick, set 2 (AID 743343); type: functional;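 note: transfected cells were stimulated with diluted bursicon conditioned medium after compound addition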
# [16] = target: Fructose-bisphosphate aldolase (Mycobacterium tuberculosis, UniProt P9WQA3); experiment: Fluorescence-based biochemical high throughput dose response assay for inhibitors of the fructose-bisphosphate aldolase (FBA) of M. tuberculosis.; type: functional
# [17] = HepG2 cell cytotoxicity, dose response, cytotoxicity control, ATP luminescence, cherry-pick, activator set 2 (AID 1053143); type: functional, cell-based
# Estrogen receptor beta [18] = target: T1, Estrogen receptor beta (Homo sapiens, UniProt Q92731); experiment: ERβ–SRC-3 coactivator interaction inhibitors, confirmation, orthogonal assay, biochemical, ELISA, streptavidin-HRP readout (AID 1060)
# Estrogen receptor beta [19] = target: T1, Estrogen receptor beta
# Chain of Nuclear receptor subfamily 0 group B member 1 (P51843 whole entry): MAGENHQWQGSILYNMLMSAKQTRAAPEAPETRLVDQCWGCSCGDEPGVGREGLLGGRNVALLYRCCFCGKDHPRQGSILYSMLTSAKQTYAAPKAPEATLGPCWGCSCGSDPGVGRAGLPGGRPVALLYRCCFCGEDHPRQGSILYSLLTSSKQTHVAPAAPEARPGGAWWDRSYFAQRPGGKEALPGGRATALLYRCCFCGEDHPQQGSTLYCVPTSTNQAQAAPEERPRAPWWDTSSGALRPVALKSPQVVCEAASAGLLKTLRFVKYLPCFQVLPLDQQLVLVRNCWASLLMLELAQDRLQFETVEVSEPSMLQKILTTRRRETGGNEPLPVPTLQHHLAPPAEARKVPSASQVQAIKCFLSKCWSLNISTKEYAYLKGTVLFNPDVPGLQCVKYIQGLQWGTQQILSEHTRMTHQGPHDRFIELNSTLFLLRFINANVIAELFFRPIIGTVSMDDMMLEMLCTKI
# Chain of Fructose-bisphosphate aldolase (P9WQA3 whole entry): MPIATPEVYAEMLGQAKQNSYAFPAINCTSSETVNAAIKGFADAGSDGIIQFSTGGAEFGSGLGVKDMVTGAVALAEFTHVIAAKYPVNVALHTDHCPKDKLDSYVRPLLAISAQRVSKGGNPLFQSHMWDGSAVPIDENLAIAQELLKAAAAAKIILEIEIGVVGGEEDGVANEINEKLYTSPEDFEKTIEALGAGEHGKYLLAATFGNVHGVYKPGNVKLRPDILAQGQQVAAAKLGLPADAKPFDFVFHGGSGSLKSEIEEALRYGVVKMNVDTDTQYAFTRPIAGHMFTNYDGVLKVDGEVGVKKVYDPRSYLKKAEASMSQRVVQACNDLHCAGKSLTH
# T1 sequence (Q92731 whole entry): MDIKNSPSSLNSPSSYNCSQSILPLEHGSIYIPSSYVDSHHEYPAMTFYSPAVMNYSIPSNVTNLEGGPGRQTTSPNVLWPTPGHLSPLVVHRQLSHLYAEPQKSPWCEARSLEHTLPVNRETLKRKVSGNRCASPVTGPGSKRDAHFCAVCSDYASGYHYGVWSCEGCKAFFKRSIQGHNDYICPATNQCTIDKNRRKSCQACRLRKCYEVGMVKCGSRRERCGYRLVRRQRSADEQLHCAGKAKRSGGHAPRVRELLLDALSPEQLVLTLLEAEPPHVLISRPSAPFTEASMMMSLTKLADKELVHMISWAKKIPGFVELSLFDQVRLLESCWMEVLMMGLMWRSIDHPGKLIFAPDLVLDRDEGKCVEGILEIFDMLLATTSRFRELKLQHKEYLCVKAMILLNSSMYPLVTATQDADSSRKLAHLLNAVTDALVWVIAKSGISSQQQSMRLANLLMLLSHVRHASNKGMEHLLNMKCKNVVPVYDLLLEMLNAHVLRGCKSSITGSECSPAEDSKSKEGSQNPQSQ
structure (smiles),measurement,setting,value
Cc1ccc(-c2cc(C(=O)N3CCCC3)no2)cc1,IC50,cells,> 67.5 µM (inactive)
same,EC50,[1],2.79 µM (active)
same,IC50,[2],> 67.5 µM (inactive)
same,EC50,[3],9.94 µM (inconclusive)
Nc1c(-c2ccccc2)cnn1-c1ccc(C(=O)O)cc1,IC50,[4],5.93 µM (active)
CCOC(=O)c1c(S(=O)(=O)Nc2ccc(CN3CCC(C)CC3)cc2)c(C)n(C)c1C,IC50,cells,> 67.5 µM (inactive)
same,IC50,[2],> 67.5 µM (inactive)
Fc1ccc(CSc2nnc(-c3cccnc3)o2)cc1,IC90,[5],1 µM (active)
same,IC90,[6],1 µM (active)
O=C(Cn1ncc(Cl)c(Cl)c1=O)c1ccc2c(c1)OCCO2,AC50,[7],15.4 µM (active)
same,EC50,HEK293 [8],> 59.5 µM (inactive)
same,AC50,INS1,> 120 µM (inactive)
same,CC50,[9],13.8 µM (active)
same,AC50,[10],21.3 µM (active)
same,AC50,[11],36.5 µM (active)
same,AC50,[12],17 µM (active)
same,EC50,HEK293 [13],> 59.5 µM (inactive)
same,CC50,[14],9.67 µM (active)
same,AC50,[15],28.4 µM (active)
Cc1nc2c(cc1N)nc(C)n2Cc1ccccc1,IC50,[16],0.653 µM (active)
CCC(=O)Nc1ccc2c(c1)C(=O)N(C)C2=O,IC50,[16],4.38 µM (active)
Cc1ncsc1C(=O)Nc1nc2c(s1)CC(C)CC2 (centres undefined),AC50,[17],> 52 µM (inactive)
CC12CCCCC1(O)[N+](=O)C1=C(CCCC1)N2[O-] (centres undefined),IC50,Estrogen receptor beta [18],2.85 µM (not active)
same,IC50,Estrogen receptor beta [19],10.9 µM (active)
